Assay results published in ChEMBL document CHEMBL1201862, “PubChem BioAssay data set” (2004).
Calls of active or inactive are those of the source.

Assays:
Interleukin-8 = target: T1, Interleukin-8 (Homo sapiens, UniProt P10145); experiment: Dose Response confirmation of uHTS small molecule hits for cystic fibrosis induced NFkb Inhibitors in a PAF-induced IL8 counterscreen.; type: functional; details: read-out: IC50_Mean
T1 sequence (P10145 whole entry): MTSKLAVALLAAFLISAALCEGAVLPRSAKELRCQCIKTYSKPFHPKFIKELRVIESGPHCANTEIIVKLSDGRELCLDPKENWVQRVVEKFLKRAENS

[1] = inhibition of ARNT PAS-B/TACC3 complex formation – biochemical, AlphaScreen, cherry-picked samples, confirmation (AID 651703); type: functional, Homo sapiens;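 also: His-tagged ARNT PAS-B domain paired with GST-TACC3 E629A dimer coactivator fragment; potency of inhibitors that break up the complex and lower AlphaScreen signal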
Caspase-6 = target: T2, Caspase-6 (Homo sapiens, UniProt P55212); experiment: inhibition of CASP6 peptide cleavage – biochemical, VEID-R110 fluorescence, cherry-pick, dose response (AID 720632)
T2 sequence (P55212 whole entry): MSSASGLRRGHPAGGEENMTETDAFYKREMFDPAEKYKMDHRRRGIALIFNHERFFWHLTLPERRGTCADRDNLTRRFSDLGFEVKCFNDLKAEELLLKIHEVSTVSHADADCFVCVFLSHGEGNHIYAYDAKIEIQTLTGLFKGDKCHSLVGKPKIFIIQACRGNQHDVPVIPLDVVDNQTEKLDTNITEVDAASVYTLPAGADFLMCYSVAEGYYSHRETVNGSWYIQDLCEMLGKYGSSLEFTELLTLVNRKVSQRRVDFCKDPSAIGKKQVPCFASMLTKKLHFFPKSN

[2] = Luminescence Cell-Based Dose Retest to Confirm Inhibitors of Cancer Stem Cells. [Related pubchem assays (depositor defined):AID2717, AID2721]; type: functional; details: Homo sapiens
[3] = target: T3, Heat shock factor protein 1 (Mus musculus, UniProt P38532); experiment: enhancement of HSF1-driven luciferase signal – cell-based, NIH3T3, luminescence, dose retest, confirmation (AID 435004); type: functional;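 also: stress induced by proteasome inhibitor MG132 added 30 min after compound; luciferase reporter driven by HSF1 response element in NIH3T3 cells; actives raise luminescence as potentiators of the MG132 stress response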
T3 sequence (P38532 whole entry): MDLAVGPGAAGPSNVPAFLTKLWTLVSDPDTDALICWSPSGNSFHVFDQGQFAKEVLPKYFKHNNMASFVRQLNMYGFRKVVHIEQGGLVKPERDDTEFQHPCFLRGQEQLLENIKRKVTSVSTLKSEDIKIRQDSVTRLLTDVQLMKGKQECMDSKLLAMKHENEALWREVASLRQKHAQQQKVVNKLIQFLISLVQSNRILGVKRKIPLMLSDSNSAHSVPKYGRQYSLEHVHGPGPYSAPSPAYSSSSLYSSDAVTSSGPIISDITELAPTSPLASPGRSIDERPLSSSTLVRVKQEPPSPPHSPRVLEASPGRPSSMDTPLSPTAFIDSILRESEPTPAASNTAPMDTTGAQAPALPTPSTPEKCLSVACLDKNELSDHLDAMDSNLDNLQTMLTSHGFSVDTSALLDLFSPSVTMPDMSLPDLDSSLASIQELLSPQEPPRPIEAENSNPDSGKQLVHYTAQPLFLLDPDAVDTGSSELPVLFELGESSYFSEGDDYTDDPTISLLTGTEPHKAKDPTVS

Vero = experiment: cells; type: functional; details: Chlorocebus sabaeus
Protein skinhead-1 = target: T4, Protein skinhead-1 (Caenorhabditis elegans, UniProt P34707); type: functional
T4 sequence (P34707 whole entry): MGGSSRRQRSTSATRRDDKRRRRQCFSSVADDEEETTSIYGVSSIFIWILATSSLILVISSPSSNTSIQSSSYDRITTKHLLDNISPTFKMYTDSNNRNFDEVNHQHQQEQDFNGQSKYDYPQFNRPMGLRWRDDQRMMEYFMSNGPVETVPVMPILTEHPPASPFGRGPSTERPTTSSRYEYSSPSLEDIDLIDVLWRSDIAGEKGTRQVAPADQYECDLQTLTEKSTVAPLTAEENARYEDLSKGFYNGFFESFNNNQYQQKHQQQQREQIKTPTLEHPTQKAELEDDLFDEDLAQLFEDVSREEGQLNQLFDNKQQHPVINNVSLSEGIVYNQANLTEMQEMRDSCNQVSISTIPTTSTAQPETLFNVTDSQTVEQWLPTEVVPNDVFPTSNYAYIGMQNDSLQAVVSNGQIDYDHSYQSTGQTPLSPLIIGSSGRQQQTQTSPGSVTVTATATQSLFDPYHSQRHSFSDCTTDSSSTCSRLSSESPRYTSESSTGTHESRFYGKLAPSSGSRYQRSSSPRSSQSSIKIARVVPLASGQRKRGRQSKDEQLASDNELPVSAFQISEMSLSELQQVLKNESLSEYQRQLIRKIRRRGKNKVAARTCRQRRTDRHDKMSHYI

[4] = target: Hepatocyte nuclear factor 4-alpha (Homo sapiens, UniProt P41235); type: functional, cell-based;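 also: biochemical luminescence-based dose-response counterscreen measuring inhibition of HNF4 dimerization, run alongside a screen for blockers of ABHD5–perilipin-5 interaction; split luciferase complementation of HNF4 fusion proteins in cell lysate measuring dimerization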
[5] = Trypanosoma cruzi growth suppression in host cells – NIH3T3 host cells, beta-gal luminescence, confirmation (AID 2044); type: functional, cell-based;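 also: intracellular parasites grown in NIH/3T3 mouse fibroblasts as host cells; luminescent beta-galactosidase reporter signal from transgenic T. cruzi replicating inside host cells; inhibitors lower the luminescence signal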
[6] = NIH3T3 cell viability loss – ATP luminescence, mouse fibroblasts, counter-screen, dose response (AID 2010); type: functional, cell-based;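 also: cells exposed to compound for about 90 hours before reading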
[7] = target: ADP-ribosylation factor GTPase-activating protein 1 (Rattus norvegicus, UniProt Q62848); experiment: Fluorescence polarization-based biochemical high throughput dose response screening assay to identify inhibitors of ADP-ribosylation factor GTPase activating protein 1 (ARFGAP1).; type: functional
[8] = target: T5, Beta-2 adrenergic receptor (Homo sapiens, UniProt P07550); experiment: Dose response for HTS for Beta-2AR agonists via FAP method from Powderset1.; type: functional
[9] = target: T5, Beta-2 adrenergic receptor; experiment: ADRB2 activation measured by internalization – cell-based, FAP fluorogen, flow cytometry, cherry pick 1, dose response (AID 588763); type: functional
[10] = Cytotoxicity Dose Response with AM2.2-beta2AR cells for PowderSet01.; type: functional, cell-based; details: read-out: EC50_MICROM
[11] = target: 26S proteasome non-ATPase regulatory subunit 14 (Homo sapiens, UniProt O00487); experiment: inhibition of proteasome subunit RPN11 – biochemical, fluorescence polarization, uHTS hits, confirmation (AID 602368); type: functional
[12] = target: 72 kDa type IV collagenase (Homo sapiens, UniProt P08253); experiment: Dose Response validation of uHTS RPN11 inhibitor hits using a MMP-2 Fluorescence assay.; type: functional
Prothrombin = Prothrombin (Bos taurus, UniProt P00735); experiment: thrombin protease inhibitors – biochemical, fluorescence polarization, uHTS hits, dose response (AID 602369); type: functional
[13] = target: T6, Small ubiquitin-related modifier 1 (Homo sapiens, UniProt P63165); experiment: SUMO1 protein interaction blockers, potency – biochemical, fluorescence polarization, uHTS hits, dose response (AID 624382); type: functional; details: read-out: IC50_Mean
[14] = target: T7, Low molecular weight phosphotyrosine protein phosphatase (Homo sapiens, UniProt P24666); type: functional; details: read-out: IC50_Mean
T7 sequence (P24666 whole entry): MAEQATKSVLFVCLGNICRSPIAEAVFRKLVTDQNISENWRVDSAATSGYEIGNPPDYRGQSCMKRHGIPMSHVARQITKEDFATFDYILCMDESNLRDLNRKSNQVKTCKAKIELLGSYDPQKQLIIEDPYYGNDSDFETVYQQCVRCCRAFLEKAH

[15] = target: T6, Small ubiquitin-related modifier 1; experiment: SUMO1 protein-protein binding blockers, potency – biochemical, FRET, dose response (AID 624383); type: functional; details: read-out: IC50_Mean
[16] = target: T7, Low molecular weight phosphotyrosine protein phosphatase; type: functional; details: read-out: IC50_Mean; remark: listed apart in the source
[17] = target: T8, Tyrosine-protein phosphatase non-receptor type 22 (Homo sapiens, UniProt Q9Y2R2); experiment: PTPN22 enzyme inhibitors – biochemical, fluorescence, LYP catalytic domain, selectivity assay for LMPTP inhibitor project, dose response (AID 652006); type: functional; details: read-out: IC50_Mean
T8 sequence (Q9Y2R2 whole entry): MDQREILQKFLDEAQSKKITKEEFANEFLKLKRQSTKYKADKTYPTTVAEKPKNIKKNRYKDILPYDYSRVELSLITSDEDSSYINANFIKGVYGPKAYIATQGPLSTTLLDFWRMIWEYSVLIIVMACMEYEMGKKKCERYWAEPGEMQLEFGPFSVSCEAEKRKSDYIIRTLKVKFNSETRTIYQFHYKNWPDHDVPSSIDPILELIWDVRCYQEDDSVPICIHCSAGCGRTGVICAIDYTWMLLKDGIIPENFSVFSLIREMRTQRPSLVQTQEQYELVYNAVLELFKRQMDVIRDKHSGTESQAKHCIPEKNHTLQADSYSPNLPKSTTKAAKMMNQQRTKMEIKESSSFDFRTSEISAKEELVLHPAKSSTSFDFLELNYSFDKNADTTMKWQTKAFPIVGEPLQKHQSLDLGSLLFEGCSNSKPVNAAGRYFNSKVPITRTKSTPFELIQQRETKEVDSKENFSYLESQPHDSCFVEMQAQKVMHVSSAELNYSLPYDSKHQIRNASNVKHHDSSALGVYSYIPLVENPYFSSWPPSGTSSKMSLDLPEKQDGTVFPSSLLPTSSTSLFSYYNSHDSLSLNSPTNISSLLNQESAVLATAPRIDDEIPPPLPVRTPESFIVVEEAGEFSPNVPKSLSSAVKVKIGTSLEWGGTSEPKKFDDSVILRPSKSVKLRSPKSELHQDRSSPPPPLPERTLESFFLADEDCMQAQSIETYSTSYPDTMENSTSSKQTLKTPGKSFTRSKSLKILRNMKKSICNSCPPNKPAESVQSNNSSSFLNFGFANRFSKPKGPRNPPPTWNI

[18] = tested on: Streptococcus sp. 'group A'; experiment: Streptococcus pyogenes SK(-)GAS viability under kanamycin – luminescence, BacTiterGlo, confirmation, counter-screen for streptokinase expression inhibitor project, dose response (AID 1900); type: functional, organism-based
Streptokinase A = target: T9, Streptokinase A (Streptococcus pyogenes serotype M1, UniProt P10520); experiment: viability-normalized secreted streptokinase activity reduction – plasminogen activation absorbance, OD405, dose response (AID 1914); type: functional, Streptococcus pyogenes M1 GAS;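 also: secreted streptokinase activity via plasminogen activation per viability signal from cell pellet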
T9 sequence (P10520 whole entry): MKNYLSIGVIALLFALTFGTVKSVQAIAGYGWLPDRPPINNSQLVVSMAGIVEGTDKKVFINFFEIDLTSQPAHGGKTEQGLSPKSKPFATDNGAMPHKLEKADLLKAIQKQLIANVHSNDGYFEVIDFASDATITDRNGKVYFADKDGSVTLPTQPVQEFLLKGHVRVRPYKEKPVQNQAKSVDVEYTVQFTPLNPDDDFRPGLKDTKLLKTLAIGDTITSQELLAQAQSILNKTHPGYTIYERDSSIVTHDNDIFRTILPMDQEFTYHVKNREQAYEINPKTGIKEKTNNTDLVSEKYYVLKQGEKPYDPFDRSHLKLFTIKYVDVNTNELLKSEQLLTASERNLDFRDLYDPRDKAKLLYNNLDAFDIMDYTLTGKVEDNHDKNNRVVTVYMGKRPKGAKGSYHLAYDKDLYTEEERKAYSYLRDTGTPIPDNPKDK

Streptococcus = experiment: GAS UMAA2166 growth inhibition – luminescence, BacTiterGlo, counter-screen for streptokinase expression inhibitor project, dose response (AID 1915); type: functional, organism-based;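 also: potency for reduction of bacterial viability or growth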
Nonstructural protein 1 = Nonstructural protein 1 (Influenza A virus, UniProt Q194T2); type: functional, Influenza A virus (A/California/07/2009(H1N1))
INS1 = experiment: INS-1E survival protection against cytokine death – cell-based, luminescence, retest, dose response (AID 449756); type: functional; details: Rattus norvegicus;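 also: cell death triggered by IL-1 beta plus TNF-alpha plus IFN-gamma mixture; protective hits raise ATP signal compared with cytokine alone wells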
[19] = reduction of Shn3 3'UTR-driven luciferase in osteoblasts – cell-based, Clone20 osteoblasts, firefly luciferase, cherry-picked, dose response (AID 624132); type: functional;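 also: firefly luciferase luminescence from reporter carrying the Shn3 3'UTR in osteoblasts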
[20] = loss of viability in HepG2 cells – cell-based, CellTiter-Glo, cherry-picked, cytotoxicity control for Shn3 inhibitor project, dose response (AID 624134); type: functional
[21] = non-specific 3'UTR reporter inhibition in Clone20-Shn3RL – cell-based, Renilla luciferase, cherry-picked, counter-screen for Shn3 inhibitor project, dose response (AID 624133); type: functional
[22] = target: Photoreceptor-specific nuclear receptor (Homo sapiens, UniProt Q9Y5X4); type: functional, cell-based;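 also: CHO-S cells with Gal4-NCOR and VP16-NR2E3 two-hybrid luciferase reporter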
[23] = target: T10, Mitochondrial peptide methionine sulfoxide reductase (Bos taurus, UniProt P54149); type: functional;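 also: absorbance read-out, biochemical high-throughput dose-response screen for MsrA inhibitors, confirmatory; recombinant bovine MsrA coupled to E. coli TrxB with NADPH and selenocystamine; potency is for inhibitors of MsrA activity on DMSO substrate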
T10 sequence (P54149 whole entry): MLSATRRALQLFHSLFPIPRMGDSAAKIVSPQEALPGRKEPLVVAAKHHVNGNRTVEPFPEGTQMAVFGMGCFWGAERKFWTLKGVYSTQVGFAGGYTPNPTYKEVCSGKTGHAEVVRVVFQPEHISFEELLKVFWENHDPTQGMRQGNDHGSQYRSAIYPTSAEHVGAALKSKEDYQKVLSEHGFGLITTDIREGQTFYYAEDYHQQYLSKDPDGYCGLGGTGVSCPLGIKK

T5 sequence (P07550 whole entry): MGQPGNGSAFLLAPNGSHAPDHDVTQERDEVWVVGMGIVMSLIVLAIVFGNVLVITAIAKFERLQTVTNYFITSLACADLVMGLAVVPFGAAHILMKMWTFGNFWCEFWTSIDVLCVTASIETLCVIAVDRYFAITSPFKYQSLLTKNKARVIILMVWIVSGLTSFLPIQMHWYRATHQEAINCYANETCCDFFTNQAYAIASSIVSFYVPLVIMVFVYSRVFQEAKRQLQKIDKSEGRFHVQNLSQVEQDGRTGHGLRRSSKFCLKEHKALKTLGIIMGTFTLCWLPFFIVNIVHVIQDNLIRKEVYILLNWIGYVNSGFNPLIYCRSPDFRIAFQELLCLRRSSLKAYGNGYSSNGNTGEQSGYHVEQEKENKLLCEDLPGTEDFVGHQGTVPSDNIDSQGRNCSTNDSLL
T6 sequence (P63165 whole entry): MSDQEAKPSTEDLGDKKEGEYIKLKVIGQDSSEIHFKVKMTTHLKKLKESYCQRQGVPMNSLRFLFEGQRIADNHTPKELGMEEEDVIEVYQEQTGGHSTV
Sequence of ADP-ribosylation factor GTPase-activating protein 1 (Q62848 whole entry): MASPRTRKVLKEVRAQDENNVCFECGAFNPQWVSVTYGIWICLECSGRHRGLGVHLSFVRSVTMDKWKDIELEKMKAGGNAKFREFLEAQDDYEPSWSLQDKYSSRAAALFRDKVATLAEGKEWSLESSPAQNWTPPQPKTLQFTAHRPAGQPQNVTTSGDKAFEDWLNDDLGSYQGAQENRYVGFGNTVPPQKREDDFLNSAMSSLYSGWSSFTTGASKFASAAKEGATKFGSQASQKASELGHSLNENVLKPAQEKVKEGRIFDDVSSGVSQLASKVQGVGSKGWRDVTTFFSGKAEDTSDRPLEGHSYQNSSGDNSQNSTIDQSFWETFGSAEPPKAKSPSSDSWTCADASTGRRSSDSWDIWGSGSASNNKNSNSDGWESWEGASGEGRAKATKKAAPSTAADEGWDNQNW
Sequence of Hepatocyte nuclear factor 4-alpha (P41235 whole entry, the tested form may be a part): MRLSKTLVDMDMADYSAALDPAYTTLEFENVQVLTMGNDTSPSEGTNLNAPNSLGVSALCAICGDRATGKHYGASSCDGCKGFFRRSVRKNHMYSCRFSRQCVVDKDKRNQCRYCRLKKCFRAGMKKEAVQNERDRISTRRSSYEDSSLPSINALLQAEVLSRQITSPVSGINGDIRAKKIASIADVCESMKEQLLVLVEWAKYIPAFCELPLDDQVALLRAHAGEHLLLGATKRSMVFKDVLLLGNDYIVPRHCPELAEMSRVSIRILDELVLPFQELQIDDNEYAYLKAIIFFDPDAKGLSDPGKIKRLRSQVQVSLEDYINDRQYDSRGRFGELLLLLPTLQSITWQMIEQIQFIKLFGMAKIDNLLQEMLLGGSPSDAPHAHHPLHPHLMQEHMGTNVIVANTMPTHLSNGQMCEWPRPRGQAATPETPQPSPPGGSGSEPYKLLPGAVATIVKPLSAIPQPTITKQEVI
Sequence of 72 kDa type IV collagenase (P08253 whole entry): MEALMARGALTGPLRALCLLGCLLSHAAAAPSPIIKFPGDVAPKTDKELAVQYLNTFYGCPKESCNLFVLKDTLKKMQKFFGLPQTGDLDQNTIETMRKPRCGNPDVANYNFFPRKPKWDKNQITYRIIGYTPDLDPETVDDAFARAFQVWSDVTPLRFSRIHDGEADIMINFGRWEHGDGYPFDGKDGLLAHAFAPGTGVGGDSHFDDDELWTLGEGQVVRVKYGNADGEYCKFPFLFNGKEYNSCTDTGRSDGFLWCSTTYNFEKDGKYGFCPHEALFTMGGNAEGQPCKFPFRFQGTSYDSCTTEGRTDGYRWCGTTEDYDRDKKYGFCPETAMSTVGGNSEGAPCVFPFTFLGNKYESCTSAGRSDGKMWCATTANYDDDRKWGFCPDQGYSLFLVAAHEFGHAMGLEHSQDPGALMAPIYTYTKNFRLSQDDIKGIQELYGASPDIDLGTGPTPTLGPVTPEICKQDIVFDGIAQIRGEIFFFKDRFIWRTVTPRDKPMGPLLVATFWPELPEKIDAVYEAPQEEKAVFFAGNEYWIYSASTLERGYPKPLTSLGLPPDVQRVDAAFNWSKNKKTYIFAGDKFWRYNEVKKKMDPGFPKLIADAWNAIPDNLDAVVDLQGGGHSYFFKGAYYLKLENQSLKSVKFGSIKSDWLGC
Sequence of 26S proteasome non-ATPase regulatory subunit 14 (O00487 whole entry): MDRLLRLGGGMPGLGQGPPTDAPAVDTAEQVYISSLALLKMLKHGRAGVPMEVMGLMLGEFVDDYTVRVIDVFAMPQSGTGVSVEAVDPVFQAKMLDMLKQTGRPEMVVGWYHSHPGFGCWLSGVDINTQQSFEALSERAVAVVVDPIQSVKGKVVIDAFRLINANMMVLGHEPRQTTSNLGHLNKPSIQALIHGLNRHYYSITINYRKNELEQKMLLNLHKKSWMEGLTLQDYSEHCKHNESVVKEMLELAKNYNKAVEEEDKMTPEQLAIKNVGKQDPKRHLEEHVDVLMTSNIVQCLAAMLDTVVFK
Sequence of Nonstructural protein 1 (Q194T2 whole entry): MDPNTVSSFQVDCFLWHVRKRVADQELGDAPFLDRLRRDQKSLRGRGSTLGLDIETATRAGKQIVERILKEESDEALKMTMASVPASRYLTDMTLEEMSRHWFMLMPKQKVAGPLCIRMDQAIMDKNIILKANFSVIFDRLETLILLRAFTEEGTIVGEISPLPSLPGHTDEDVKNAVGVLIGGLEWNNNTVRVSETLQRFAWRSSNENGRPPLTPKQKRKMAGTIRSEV
Sequence of Photoreceptor-specific nuclear receptor (Q9Y5X4 whole entry, the tested form may be a part): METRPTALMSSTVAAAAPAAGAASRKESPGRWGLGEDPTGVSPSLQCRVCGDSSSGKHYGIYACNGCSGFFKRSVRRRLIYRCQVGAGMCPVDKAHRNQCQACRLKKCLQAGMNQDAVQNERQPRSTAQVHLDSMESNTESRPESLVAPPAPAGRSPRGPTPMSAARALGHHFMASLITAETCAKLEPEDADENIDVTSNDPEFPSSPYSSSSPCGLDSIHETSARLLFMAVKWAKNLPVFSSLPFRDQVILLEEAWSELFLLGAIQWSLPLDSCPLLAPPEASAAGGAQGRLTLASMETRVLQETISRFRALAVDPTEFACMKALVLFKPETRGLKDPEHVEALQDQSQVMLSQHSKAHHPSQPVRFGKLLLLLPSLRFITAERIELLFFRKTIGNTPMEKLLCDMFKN

Compound: COc1cncc(-c2cnc3sc(NCCc4ccccn4)nn23)c1
- IC50 (Interleukin-8): 9.33 µM (active)

Compound: CC1CCN(C(=O)COC(=O)c2ccc([N+](=O)[O-])o2)CC1
- AC50 [1]: 122 µM (active)
- AC50 (Caspase-6): 18.3 µM (active)

Compound: O=C(/C=C/Sc1ccccc1)c1ccc(Cl)cc1
- AC50 [2]: 3.46 µM (active)
- EC50 [3]: 9.05 µM (active)
- CC50 (Vero): 14.2 µM (active)
- IC50 (Protein skinhead-1): 31 µM (active)
- IC50 [4]: 6.31 µM (active)

Compound: N#CCCn1cc(/C=N/NC(N)=S)c(-c2ccc(-c3ccccc3)cc2)n1
- EC50 [5]: 0.924 µM (active)
- EC50 [6]: 9.69 µM (active)
- IC50 [7]: 128 µM (inactive)

Compound: O=C(Nc1ccc(S(=O)(=O)N2CCCCC2c2cccnc2)cc1)c1c(F)cccc1F (configuration not stated)
- EC50 [8]: 0.119 µM (active)
- EC50 [9]: 2.46 µM (active)
- EC50 [10]: 5.39 µM (active)

Compound: C/C(=N\NC(=O)c1ccc(OC2OCCOC2Oc2ccc(C(=O)N/N=C(\C)c3ccncc3)cc2)cc1)c1ccncc1 (configuration not stated)
- IC50 [11]: 9.62 µM (active)
- IC50 [12]: > 100 µM (inactive)
- IC50 (Prothrombin): 41 µM (active)
- IC50 [13]: > 66.6 µM (inactive)
- IC50 [14]: > 80 µM (inactive)
- IC50 [15]: 8.52 µM (active)
- IC50 [16]: 13.2 µM (active)
- IC50 [17]: 13.6 µM (active)

Compound: CC(C)(C)Nc1nc(-c2ccccn2)nc2ccccc12
- EC50 [18]: 2.48 µM (active)
- EC50 (Streptokinase A): > 150 µM (not active)
- EC50 (Streptococcus): 5.93 µM (active)
- IC50 (Nonstructural protein 1): 12.2 µM (active)
- AC50 (INS1): 2.06 µM (active)
- AC50 [19]: 1.86 µM (active)
- AC50 [20]: > 70 µM (inactive)
- AC50 [21]: 1.42 µM (active)
- IC50 [22]: 3.88 µM (active)

Compound: C/C(=N/O)c1cc(C(C)(C)C)c(O)c(C(C)(C)C)c1
- IC50 [23]: 155 µM (inactive)
